The values that follow come from ChEMBL document CHEMBL1153320, “Development of the renal glucose reabsorption inhibitors: a new mechanism for the pharmacotherapy of diabetes mellitus type 2” (J Med Chem, 2009).

The subject of data set [1] is Homo sapiens. Put plainly: Antidiabetic activity in po dosed type 2 diabetes mellitus patient assessed as reduction in HbA1C level in small intestine. Type of data set: functional. Further details: scale not given: the % may be the effect or the level left.
In data set [2] the test system is Homo sapiens. Put plainly: Antidiabetic activity in po dosed type 2 diabetes mellitus patient assessed as reduction in HbA1C level […]. In kind it is functional. Further details: scale not given: the % may be the effect or the level left.
Data set [3] has as its target T1, Sodium/glucose cotransporter 2 (Homo sapiens, UniProt P31639).
T1 sequence (P31639 whole entry): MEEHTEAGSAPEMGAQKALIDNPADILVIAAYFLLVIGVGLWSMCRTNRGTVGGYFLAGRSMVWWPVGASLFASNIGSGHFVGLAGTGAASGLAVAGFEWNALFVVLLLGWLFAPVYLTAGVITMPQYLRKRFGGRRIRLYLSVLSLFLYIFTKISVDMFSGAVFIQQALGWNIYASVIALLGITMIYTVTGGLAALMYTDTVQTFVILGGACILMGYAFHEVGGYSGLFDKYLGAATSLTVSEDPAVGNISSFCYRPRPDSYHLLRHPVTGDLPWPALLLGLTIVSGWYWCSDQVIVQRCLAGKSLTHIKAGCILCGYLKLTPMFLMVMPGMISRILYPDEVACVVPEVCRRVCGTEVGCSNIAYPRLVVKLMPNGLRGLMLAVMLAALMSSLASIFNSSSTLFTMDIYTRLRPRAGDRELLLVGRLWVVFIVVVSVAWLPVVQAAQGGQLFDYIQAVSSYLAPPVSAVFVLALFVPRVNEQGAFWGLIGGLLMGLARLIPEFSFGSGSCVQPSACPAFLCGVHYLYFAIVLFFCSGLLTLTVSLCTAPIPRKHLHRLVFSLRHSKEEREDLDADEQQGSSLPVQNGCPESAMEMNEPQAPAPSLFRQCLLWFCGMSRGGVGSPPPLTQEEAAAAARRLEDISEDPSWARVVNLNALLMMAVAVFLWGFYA
Put plainly: Inhibition of human kidney SGLT2 assessed as renal glucose reabsorption.

Data set [4] has as its system Rattus norvegicus. Put plainly: Antidiabetic activity in normal Sprague-Dawley rat assessed as urinary glucose excretion at 30 mg/kg, po after 24 hrs. Type of data set: functional, Urine.
Data set [5] deals with Rattus norvegicus. Put plainly: Antidiabetic activity in normal Sprague-Dawley rat assessed as urinary glucose excretion at 3 mg/kg, po after 24 hrs. Type of data set: functional, Urine.
For data set [6], the system named is Homo sapiens. Nature of the data set: Antidiabetic activity in normal human assessed as plasma glucose level at 500 mg, po after 4 hrs by OGTT. In kind it is functional.
In data set [7] the test system is Homo sapiens. Nature of the data set: Antidiabetic activity in over-weight subject assessed as reduction of body weight at […], po tid for 2 weeks. In kind it is functional.
Data set [8] deals with Homo sapiens. Put plainly: Antidiabetic activity in normal human assessed as reduction urinary glucose excretion at 200 mg, po after 24 hrs. Type of data set: functional, Urine.
Data set [9] concerns Rattus norvegicus. Put plainly: Antidiabetic activity in normal Sprague-Dawley rat assessed as urinary glucose excretion at 10 mg/kg, po after 24 hrs. In kind it is functional, Urine.
For data set [10], the system named is Homo sapiens. Nature of the data set: Antidiabetic activity in normal human assessed as reduction urinary glucose excretion at 500 mg, po after 24 hrs. Type of data set: functional, Urine.
The subject of data set [11] is Rattus norvegicus. Put plainly: Antidiabetic activity in normal Sprague-Dawley rat assessed as urinary glucose excretion at 1 mg/kg, po after 24 hrs. In kind it is functional, Urine.
A short description of data set [12]: Clearance in normal human at 10 to 100 mg/day, po administered as single ascending dose. As to conditions: in vivo.
A short description of data set [13]: clinical. Conditions: human, in vivo, po.
The nature of data set [14]: Half life in normal human at 10 to 100 mg/day, po administered as single ascending dose. Conditions: in vivo.
For data set [15], the system named is Homo sapiens. Nature of the data set: Antidiabetic activity in po dosed type 2 diabetes mellitus patient assessed as reduction in HbA1C level in liver. In kind it is functional. Further details: scale not given: the % may be the effect or the level left.
Data set [16] relates to Homo sapiens. Nature of the data set: Antidiabetic activity in po dosed type 2 diabetes mellitus patient assessed as reduction in HbA1C level in intestine. In kind it is functional. Further details: scale not given: the % may be the effect or the level left.
Data set [17] is filed under the species Homo sapiens. Nature of the data set: Selectivity for human SGLT2 over human SGLT1.
In data set [18] the test system is Homo sapiens. Nature of the data set: Antidiabetic activity in po dosed type 2 diabetes mellitus patient assessed as reduction in HbA1C level in skeletal muscle. Type of data set: functional, Muscle tissue. Further details: scale not given: the % may be the effect or the level left.
The test system of data set [19] is Homo sapiens. Put plainly: Antidiabetic activity in po dosed type 2 diabetes mellitus patient assessed as reduction in HbA1C level in adipose tissue. Further details: scale not given: the % may be the effect or the level left. In kind it is functional.
The species named for data set [20] is Homo sapiens. Nature of the data set: Antidiabetic activity in type 2 diabetes mellitus patient assessed as reduction body weight. Further details: scale not given: the % may be the effect or the level left. Type of data set: functional.
In data set [21] the test system is Homo sapiens. Put plainly: Antidiabetic activity in type 2 diabetes mellitus patient assessed as reduction in HbA1C level at 750 mg, po daily measured after 12 weeks. In kind it is functional. Further details: scale not given: the % may be the effect or the level left.
Data set [22] concerns Rattus norvegicus. Nature of the data set: Antidiabetic activity in normal Sprague-Dawley rat assessed as urinary glucose excretion at 300 mg/kg, po after 24 hrs. Type of data set: functional, Urine.
The subject of data set [23] is Rattus norvegicus. Nature of the data set: Antidiabetic activity in normal Sprague-Dawley rat assessed as urinary glucose excretion at 100 mg/kg, po after 24 hrs. Type of data set: functional, Urine.

With `C[C@H]1O[C@H](O[C@H]2[C@H](O)[C@@H](O)[C@@H](O[C@H]3[C@H](O)[C@@H](O)C(O)O[C@@H]3CO)O[C@@H]2CO)[C@H](O)[C@@H](O)[C@@H]1N[C@H]1C=C(CO)[C@@H](O)[C@H](O)[C@H]1O` (stereo partly specified) [ACARBOSE], the Activity in [1] and in data set [2] was 0.5% throughout.
On to `CCc1ccc(Cc2ccccc2[C@@H]2O[C@H](CO)[C@@H](O)[C@H](O)[C@H]2O)cc1`, for which the EC50 in [3] is > 0.002 µM.
For `CCOC(=O)OC[C@H]1O[C@@H](Oc2ccccc2Cc2ccc(OC)cc2)[C@H](O)[C@@H](O)[C@@H]1O` [SERGLIFLOZIN ETABONATE], the Activity in data set [4] came to 400 mg; in [5], 80 mg; in data set [6] it was 7 mmol·h/L; in data set [7] it was 1.5 kg; in data set [8], 12 g; in data set [9], 180 mg. Also, the Activity in data set [10] came out at 17 g.
On to `CCOc1ccc(Cc2cc([C@@H]3O[C@H](CO)[C@@H](O)[C@H](O)[C@H]3O)ccc2Cl)cc1` [DAPAGLIFLOZIN], for which, in data set [11], the Activity is reported as 1100 mg. The CL/F in data set [12] was 6 mL/min. Besides, the Tmax in [13] stood at 1 h. In data set [14], this molecule showed a half-life of 15 h.
Regarding `CN(C)C(=N)NC(=N)N` [METFORMIN], the Activity in data set [15], in [16] and in [2] was 1% in each case.
Turning to `CCOc1cc(CC(=O)N[C@@H](CC(C)C)c2ccccc2N2CCCCC2)ccc1C(=O)O` [REPAGLINIDE], the Activity in [2] is listed as 1%.
The same measure, in the same setting: under `CCC1=C(C)CN(C(=O)NCCc2ccc(S(=O)(=O)NC(=O)N[C@H]3CC[C@H](C)CC3)cc2)C1=O` [GLIMEPIRIDE] stands 1%.
Take `Cc1cc(O)c(C(=O)CCc2ccc3occc3c2)c(O[C@@H]2O[C@H](CO)[C@@H](O)[C@H](O)[C@H]2O)c1`: the IC50 in data set [3] was 0.05 µM.
`Cc1c(Cc2ccc(OC(C)C)cc2)c(O[C@@H]2O[C@H](CO)[C@@H](O)[C@H](O)[C@H]2O)nn1C(C)C` [REMOGLIFLOZIN]: the Ratio in [17] worked out at 365. Moreover, in data set [3], the EC50 was found to be 0.014 µM and the Ki came out at 0.0124 µM.
Regarding `CN(CCOc1ccc(CC2SC(=O)NC2=O)cc1)c1ccccn1` (stereo unspecified) [ROSIGLITAZONE], the Activity in data set [18], in data set [15] and in data set [19] was 0.5% throughout.
Regarding `N[C@@H](CC(=O)N1CCn2c(nnc2C(F)(F)F)C1)Cc1cc(F)c(F)cc1F` [SITAGLIPTIN], the Activity in data set [16] came to 0.6%.
As to `COc1ccc(Cc2ccccc2O[C@@H]2O[C@H](CO)[C@@H](O)[C@H](O)[C@H]2O)cc1` [SERGLIFLOZIN A], the Ratio in [17] was determined as 296. In [3], the EC50 turned out to be 0.009 µM and the inhibition constant (Ki) was found to be 0.0024 µM.
`C/N=C(\N)N(C)C(=N)N.Cl` [METFORMIN XR]: the figures for the Activity in data set [20] and in data set [21] were 2.3% and 0.73%, respectively.
With `CCOC(=O)OC[C@H]1O[C@@H](Oc2nn(C(C)C)c(C)c2Cc2ccc(OC(C)C)cc2)[C@H](O)[C@@H](O)[C@@H]1O` [REMOGLIFLOZIN ETABONATE], the Activity in data set [5] came to 95 mg; in data set [11], 36 mg; in data set [9] it was 320 mg.
Turning to `CCNC(=O)c1c(O)c(Cc2ccc(OC)cc2)cc([C@@H]2O[C@H](CO)[C@@H](O)[C@H](O)[C@H]2O)c1O`, the EC50 in data set [3] amounted to 0.5 µM.
Regarding `COC(=O)OC[C@H]1O[C@@H](Oc2cc(C)cc(O)c2C(=O)CCc2ccc3occc3c2)[C@H](O)[C@@H](O)[C@@H]1O`, the Activity came out at 2000 mg in data set [22], 450 mg in data set [4], 50 mg in [9] and 1000 mg in data set [23].
With `O=C(CCc1ccc(O)cc1)c1c(O)cc(O)cc1O[C@@H]1O[C@H](CO)[C@@H](O)[C@H](O)[C@H]1O` [PHLORIZIN], the Activity in [22] is on record as 80 mg.
